PubChem BioAssay AID1963866 (Molecular Pharmacology Branch, DTP, NCI, 2024)

Test system: PDC KRAS tumor spheroids with HUVEC/MSC, viability
Test: Anticancer human tumor 349418-098-R-PDC patient-derived lung adenocarcinoma cell line growth inhibition [KRAS2]
Details: for IC50: curve of first compound; for viability, T/C: stronger effect = lower value
Summary of the method: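 Combination screen of spheroid viability in tumor-cell co-cultures with endothelial (HUVEC) and mesenchymal stem cell stroma. Each agent was tested in half-log dilutions, topping at clinical Cmax or at 10 microM without a known Cmax.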

[1] = second compound 0.0316 µM, first compound 0.000316 µM
[2] = second compound 0.0316 µM, first compound 0.001 µM
[3] = second compound 0.0316 µM, first compound 0.00316 µM
[4] = second compound 0.0316 µM, first compound 0.01 µM
[5] = second compound 0.0316 µM, first compound 0.0316 µM
[6] = second compound 0.1 µM, first compound 0.000316 µM
[7] = second compound 0.1 µM, first compound 0.001 µM
[8] = second compound 0.1 µM, first compound 0.00316 µM
[9] = second compound 0.1 µM, first compound 0.01 µM
[10] = second compound 0.1 µM, first compound 0.0316 µM
[11] = second compound 0.316 µM, first compound 0.000316 µM
[12] = second compound 0.316 µM, first compound 0.001 µM
[13] = second compound 0.316 µM, first compound 0.00316 µM
[14] = second compound 0.316 µM, first compound 0.01 µM
[15] = second compound 0.316 µM, first compound 0.0316 µM
[16] = second compound 1 µM, first compound 0.000316 µM
[17] = second compound 1 µM, first compound 0.001 µM
[18] = second compound 1 µM, first compound 0.00316 µM
[19] = second compound 1 µM, first compound 0.01 µM
[20] = second compound 1 µM, first compound 0.0316 µM
[21] = second compound 3.16 µM, first compound 0.000316 µM
[22] = second compound 3.16 µM, first compound 0.001 µM
[23] = second compound 3.16 µM, first compound 0.00316 µM
[24] = second compound 3.16 µM, first compound 0.01 µM
[25] = second compound 3.16 µM, first compound 0.0316 µM
[26] = second compound 0.0316 µM, first compound 0.1 µM
[27] = second compound 0.1 µM, first compound 0.1 µM
[28] = second compound 0.316 µM, first compound 0.1 µM
[29] = second compound 1 µM, first compound 0.1 µM
[30] = second compound 3.16 µM, first compound 0.1 µM
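Also: spheroids exposed to compounds for seven days before readout.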

SMILES | IC50 (second compound 0.0316 µM) [nM] | IC50 (second compound 0.1 µM) [nM] | IC50 (second compound 0.316 µM) [nM] | IC50 (second compound 1 µM) [nM] | IC50 (second compound 3.16 µM) [nM] | viability, T/C [1] [%] | viability, T/C [2] [%] | viability, T/C [3] [%] | viability, T/C [4] [%] | viability, T/C [5] [%] | viability, T/C [6] [%] | viability, T/C [7] [%] | viability, T/C [9] [%] | viability, T/C [10] [%] | viability, T/C [14] [%] | viability, T/C [15] [%] | viability, T/C [19] [%] | viability, T/C [20] [%] | viability, T/C [24] [%] | viability, T/C [25] [%] | other results
CC(=O)Nc1cccc(-n2c(=O)n(C3CC3)c(=O)c3c(Nc4ccc(I)cc4F)n(C)c(=O)c(C)c32)c1 + C=CC(=O)N1CCN(c2nc(OCC3CCCN3C)nc3c2CCN(c2cccc4cccc(C)c24)C3)CC1CC#N | < 0.1 | < 0.1 | < 0.1 | < 0.1 | < 0.1 | 20.2 | 14.8 | 12.2 | 8.59 | 6.57 | 20.9 | 16.1 | 9.4 | 6.86 | 8.68 | 6.94 | 7.58 | 6.58 | 0.21 | 0.34 | viability, T/C (second compound 0.0316 µM, first compound 0.0001 µM): 41.1%; viability, T/C (second compound 0.1 µM, first compound 0.0001 µM): 34.7%; viability, T/C [8]: 10.9%; viability, T/C (second compound 0.316 µM, first compound 0.0001 µM): 35.8%; viability, T/C [11]: 21.8%; viability, T/C [12]: 16.8%; viability, T/C [13]: 12.6%; viability, T/C (second compound 1 µM, first compound 0.0001 µM): 30.4%; viability, T/C [16]: 23.3%; viability, T/C [17]: 13.3%; viability, T/C [18]: 9.39%; viability, T/C (second compound 3.16 µM, first compound 0.0001 µM): 0.51%; viability, T/C [21]: 0.21%; viability, T/C [22]: 0.19%; viability, T/C [23]: 0.46%
CC(=O)OC12COC1CC(O)C1(C)C(=O)C(O)C3=C(C)C(OC(=O)C(O)C(NC(=O)OC(C)(C)C)c4ccccc4)CC(O)(C(OC(=O)c4ccccc4)C21)C3(C)C (stereo not given) + C=CC(=O)N1CCN(c2nc(OCC3CCCN3C)nc3c2CCN(c2cccc4cccc(C)c24)C3)CC1CC#N | < 10 | < 10 | < 10 | < 10 | < 10 | – | – | – | 12 | 20 | – | – | 13.5 | 12 | 10.8 | 14.2 | 9.34 | 12.5 | 12.8 | 14.4 | viability, T/C [26]: 16.5%; viability, T/C (second compound 0.0316 µM, first compound 0.316 µM): 17.8%; viability, T/C (second compound 0.0316 µM, first compound 1 µM): 24.9%; viability, T/C (second compound 0.0316 µM, first compound 3.16 µM): 23.5%; viability, T/C [27]: 15.2%; viability, T/C (second compound 0.1 µM, first compound 0.316 µM): 17.2%; viability, T/C (second compound 0.1 µM, first compound 1 µM): 21.1%; viability, T/C (second compound 0.1 µM, first compound 3.16 µM): 18%; viability, T/C [28]: 12.8%; viability, T/C (second compound 0.316 µM, first compound 0.316 µM): 14.6%; viability, T/C (second compound 0.316 µM, first compound 1 µM): 18.3%; viability, T/C (second compound 0.316 µM, first compound 3.16 µM): 18%; viability, T/C [29]: 12.2%; viability, T/C (second compound 1 µM, first compound 0.316 µM): 11.6%; viability, T/C (second compound 1 µM, first compound 1 µM): 14.8%; viability, T/C (second compound 1 µM, first compound 3.16 µM): 17.5%; viability, T/C [30]: 19.9%; viability, T/C (second compound 3.16 µM, first compound 0.316 µM): 20%; viability, T/C (second compound 3.16 µM, first compound 1 µM): 19.5%; viability, T/C (second compound 3.16 µM, first compound 3.16 µM): 24.3%
CN(C)C/C=C/C(=O)Nc1cc2c(Nc3ccc(F)c(Cl)c3)ncnc2cc1O[C@H]1CCOC1 + C=CC(=O)N1CCN(c2nc(OCC3CCCN3C)nc3c2CCN(c2cccc4cccc(C)c24)C3)CC1CC#N | > 100 | > 100 | > 100 | > 100 | < 0.316 | 102 | 101 | 85 | 105 | 102 | 101 | 109 | 92.9 | 83.8 | 94.9 | 82.1 | 69.4 | 77.4 | 0.17 | 1.41 | viability, T/C [26]: 87.2%; viability, T/C [8]: 86.3%; viability, T/C [27]: 83.9%; viability, T/C [11]: 99.9%; viability, T/C [12]: 99.8%; viability, T/C [13]: 94.6%; viability, T/C [28]: 84.4%; viability, T/C [16]: 84.5%; viability, T/C [17]: 75.2%; viability, T/C [18]: 65.9%; viability, T/C [29]: 58.3%; viability, T/C [21]: 0.17%; viability, T/C [22]: 0.19%; viability, T/C [23]: 0.17%; viability, T/C [30]: 0.2%
